The target in one series is T1, KDM4A (Homo sapiens, UniProt O75164).
T1 sequence (O75164 1-1064): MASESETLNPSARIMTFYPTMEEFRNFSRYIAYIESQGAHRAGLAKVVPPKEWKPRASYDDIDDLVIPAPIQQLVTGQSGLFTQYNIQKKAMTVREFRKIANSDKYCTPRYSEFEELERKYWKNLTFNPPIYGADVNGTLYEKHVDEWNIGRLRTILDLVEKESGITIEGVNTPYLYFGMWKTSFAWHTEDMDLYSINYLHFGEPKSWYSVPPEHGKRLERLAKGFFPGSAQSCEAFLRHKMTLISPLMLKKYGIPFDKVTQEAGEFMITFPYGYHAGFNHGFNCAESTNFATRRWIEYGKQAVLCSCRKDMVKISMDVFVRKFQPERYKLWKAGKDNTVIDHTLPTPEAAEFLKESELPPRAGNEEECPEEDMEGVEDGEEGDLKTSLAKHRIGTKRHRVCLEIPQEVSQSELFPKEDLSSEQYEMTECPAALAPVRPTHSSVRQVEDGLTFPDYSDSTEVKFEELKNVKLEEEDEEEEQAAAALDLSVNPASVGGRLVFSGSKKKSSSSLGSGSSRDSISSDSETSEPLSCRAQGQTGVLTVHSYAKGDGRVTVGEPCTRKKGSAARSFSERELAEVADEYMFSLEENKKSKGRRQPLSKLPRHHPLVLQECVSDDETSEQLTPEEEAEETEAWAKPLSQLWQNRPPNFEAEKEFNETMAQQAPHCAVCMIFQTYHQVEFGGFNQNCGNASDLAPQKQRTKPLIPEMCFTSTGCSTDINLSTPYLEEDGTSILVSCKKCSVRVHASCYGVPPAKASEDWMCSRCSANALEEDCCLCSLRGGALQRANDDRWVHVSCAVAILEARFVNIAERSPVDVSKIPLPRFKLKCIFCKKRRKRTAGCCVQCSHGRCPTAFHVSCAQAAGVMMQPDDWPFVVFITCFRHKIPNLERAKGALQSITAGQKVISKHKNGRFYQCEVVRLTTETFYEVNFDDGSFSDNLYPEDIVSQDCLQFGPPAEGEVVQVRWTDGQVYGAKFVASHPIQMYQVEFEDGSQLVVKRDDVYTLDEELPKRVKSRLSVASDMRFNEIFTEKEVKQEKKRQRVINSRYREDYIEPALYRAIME
Description: Zn ejection assay (TSQ Zn(II) fluorophore). Conditions: 20 μM compound, 2 μM KDM4A. The class given is biochemical. As to the method:
Zn ejection assay was performed using N-(6-nethoxy-8-quinolyl)-p-toluenesulfonamide (TSQ) (Enzo) Zn(II) fluorophore as described with minor modifications28,33. In brief, assays were performed in 384 well black μCLEAR® non-binding plates (Grenier) using a reaction volume of 100 μL at 37° C. on a BMG CLARIOstar (360ex/490em). The plate was shaken (5 s, 700 rpm) before each reading, taken every 22 s for 270 cycles. Reactions consisted of […], 25 μM Ebselen or 20 μM H3 K9Bhn/H3-wt/4-bromobutylboronic acid, and those with enzyme contained 2 μM KDM4A all with 1.1% (v/v) DMSO in 50 mM HEPES (pH 7.5). Compounds and TSQ were added to the plate before initiating the assay with addition of KDM4A using the CLARIOstar injector (FIG. 4d). An internal calibration curve of ZnCl2 (0-2 μM) in 50 mM HEPES (pH 7.5) was included in each experiment to quantitate the concentrations of Zn(II) ejected. Data were normalised by subtracting a no enzyme control for that compound at each time point. Mean±standard deviation (n=3 technical replicates) was plotted for each time point using GraphPad Prism 5.0, representative data from three biological replicates is shown.
The rate of Zn(II) ejection was calculated from the slope of linear regression plotted over the linear region of Zn(II) ejection (from 946-3982 s) plotted in GraphPad Prism 5.0. […]

The nature of another series: Cyclic voltammetry. The class given is physicochemical. As to the method:
Catechol and 4-bromobutylboronic acid were obtained from Sigma-Aldrich and used as received without further purification. All solutions were made up using ultrapure water of resistivity not less than 18.2 MQ cm (Millipore) at 25° C. and degassed thoroughly with nitrogen (99.998%, BOC Gases plc) before use. Phosphate buffered saline (PBS) solution (pH=6.0) consisting of 43.85 mM sodium phosphate monobasic and 6.15 mM potassium phosphate dibasic.
All voltammetric measurements were recorded using an Autolab PGSTAT30 computer controlled potentiostat (Metrohm, Utrecht, The Netherlands). Experiments were performed in a thermostatted (25.0+0.3° C.) Faraday cage using a three-electrode set-up. A glassy carbon macroelectrode (diameter 3.0 mm, CH Instrument) was used as the working electrode, a saturated calomel electrode (SCE) as the reference electrode (SCE, ALS distributed by BASi, Tokyo, Japan) and a graphite rod as the counter electrode. Prior to each voltammetric experiment, renewal of the working electrode surface was achieved by polishing with alumina slurries in the size sequence 1.0 m, 0.3 m and 0.05 m, (Buehler Ltd, USA) followed by sonication in water and drying with nitrogen.

The target of the next series is T2, Sirt2 (Homo sapiens, UniProt Q8IXJ6).
T2 construct: His tag (inferred from the HisTrap purification); made in house; host or cells: E. coli BL21(DE3)
T2 sequence (Q8IXJ6 1-389): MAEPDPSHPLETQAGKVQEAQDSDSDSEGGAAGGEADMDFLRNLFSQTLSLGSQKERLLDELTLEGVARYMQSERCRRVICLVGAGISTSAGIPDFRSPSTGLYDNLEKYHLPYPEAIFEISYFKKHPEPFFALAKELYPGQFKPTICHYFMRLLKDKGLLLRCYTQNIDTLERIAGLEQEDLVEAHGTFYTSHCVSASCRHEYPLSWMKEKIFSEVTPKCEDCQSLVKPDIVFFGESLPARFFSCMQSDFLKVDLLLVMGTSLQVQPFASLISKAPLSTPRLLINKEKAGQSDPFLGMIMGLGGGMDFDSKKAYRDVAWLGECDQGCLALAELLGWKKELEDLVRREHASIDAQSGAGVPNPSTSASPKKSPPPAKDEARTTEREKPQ
Kind of series: Sirt2 deacylation of acylated histone H3-K18 (intact-protein LC-MS timecourse, 19F-NMR). The settings on record: deacylation of γ-F2 labelled KAc side chain, protein 19F NMR. The class given is biochemical. The source says: H3-KAc18 and H3-KBzl8 were generated using BACED reagents (FIG. 4A).
The pySOOF reagents were also used to generate corresponding H—F labeled side chain analogues such as K[γF2]Ac and K[γF2] sidechains 2 k and 2f, respectively. […] Other sidechain variations could similarly be distinguished at different sites in the same protein e.g. H3.1-K9→H3.1-KAc9→H3.1-Kme39 (sidechains 2f→2 k→2j=δF −99.0→−98.0→−99.2) or H3.1-M27 (sidechain 2×δF −74.8) or H3.1-E9 (sidechain 2u δF −103.3). In this way, the diverse scope of available further sidechains allows this approach to be explored in numerous additional directions such as e.g. monitoring heteroatom variation (e.g. N→O, ‘deaza-oxo’ variant KOAc, sidechain 2r for H3.1-K18→H3.1-KOAc18, sidechains 2 k→2r) or even precisely assaying sidechain Met oxidation state (H3.1-M27→H3.1-Mox27→H3.1-Mox27, sidechains 2x→2y→2z).
Due to the site-selectivity of the insertion of this label and its excellent sensitivity in ‘zero background’, not only could chemical shift of ^19F signal be ‘read’ but also its multiplicity through correlated simulation (FIG. 4B).

Consider `OB(O)CCCCBr` [Example 1u-precursor, 4-bromobutylboronic acid], for which, on KDM4A, the “Time-dependent release of Zn(II) from KDM4A observed” value is listed as “not”. Besides, the “Zn(II)-ejection rate” value on KDM4A (50 mM HEPES pH 7.5, 37° C., slope of linear region 946-3982 s) turned out to be 0.805 ± 0.010 nM/min. In addition, in the series “Cyclic voltammetry” (absence of catechol), the “oxidation in the absence of catechol” value is given as “no oxidation was observed”. In addition, the “half potential Eox (irreversible oxidation event)” value in the series “Cyclic voltammetry” (catechol-enhanced conditions (1:12), saturated calomel reference electrode) is “+0.93 V”.

B1: Sirt2: HDAC deacylation enzyme Sirt2 (protein, UniProt Q8IXJ6 2-389, looked up)
NAD-dependent protein …: AEPDPSHPLETQAGKVQEAQDSDSDSEGGAAGGEADMDFLRNLFSQTLSLGSQKERLLDELTLEGVARYMQSERCRRVICLVGAGISTSAGIPDFRSPSTGLYDNLEKYHLPYPEAIFEISYFKKHPEPFFALAKELYPGQFKPTICHYFMRLLKDKGLLLRCYTQNIDTLERIAGLEQEDLVEAHGTFYTSHCVSASCRHEYPLSWMKEKIFSEVTPKCEDCQSLVKPDIVFFGESLPARFFSCMQSDFLKVDLLLVMGTSLQVQPFASLISKAPLSTPRLLINKEKAGQSDPFLGMIMGLGGGMDFDSKKAYRDVAWLGECDQGCLALAELLGWKKELEDLVRREHASIDAQSGAGVPNPSTSASPKKSPPPAKDEARTTEREKPQ
B1: in the series with Sirt2, the L/D selectivity preference was above 14 and the “ΔΔG of L/D selectivity” value was above 1.58 kcal/mol.

The values above are taken from patent US20230272002A1, “PHOTOREDOX PROTEIN MODIFICATION” (THE ROSALIND FRANKLIN INSTITUTE, priority 2020, published 2023).
